Assay results: patent US5891877A, “Pharmaceutical compounds” (Xenova Limited, priority 1996, dated 1999)
pIC50: −log10 of the molar value.

Molecular target: PAI-1 (Homo sapiens, UniProt P05121)
Assay: PAI-1 inhibition in the S2251 chromogenic substrate assay (PAI functional assay)
Format: biochemical
Conditions: for INHIBITION OF PAI-1 (degree of inhibition): Table 1, first part, unit assumed; for pIC50: PAI-1, S2251 assay, Table 2
Experimental: In this assay, a compound is incubated with PAI-1 prior to addition to the tPA assay system. Inhibition of PAI-1 results in the production of plasmin from plasminogen. […]
Compounds of formula (A) were tested in a PAI chromogenic substrate assay. […] In turn, the plasmin cleaved the chromogenic substrate S2251 (Kabi-Vitrum) producing pNA (p-nitroaniline) which was detected scectrophotometrically at 405 nm.

Sequence of PAI-1 (P05121 24-402): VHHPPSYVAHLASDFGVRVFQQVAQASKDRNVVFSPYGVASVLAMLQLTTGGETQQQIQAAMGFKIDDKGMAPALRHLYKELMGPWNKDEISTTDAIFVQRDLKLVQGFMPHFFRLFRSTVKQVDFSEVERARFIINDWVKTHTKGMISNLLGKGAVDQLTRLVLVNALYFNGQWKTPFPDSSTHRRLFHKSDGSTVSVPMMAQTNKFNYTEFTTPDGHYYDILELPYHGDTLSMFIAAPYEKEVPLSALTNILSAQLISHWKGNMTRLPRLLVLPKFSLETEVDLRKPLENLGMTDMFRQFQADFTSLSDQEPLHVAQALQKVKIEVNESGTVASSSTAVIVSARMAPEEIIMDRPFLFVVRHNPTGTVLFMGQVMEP

Structure (SMILES) | INHIBITION OF PAI-1 (degree of inhibition) (6.25 μm) | INHIBITION OF PAI-1 (degree of inhibition) (12.5 μm) | INHIBITION OF PAI-1 (degree of inhibition) (25 μm) | INHIBITION OF PAI-1 (degree of inhibition) (50 μm) | INHIBITION OF PAI-1 (degree of inhibition) (100 μm) | pIC50
CC(C)(C)OC(=O)n1cccc1/C=c1\[nH]c(=O)/c(=C/c2ccccc2)[nH]c1=O [Compound 1470, (3Z,6Z)-3-Benzylidene-6-(2-(1-tertbutoxycarbonyl)pyrrolyl)methylene-2,5-piperazinedione] | 0% | 0% | 2% | 20% | 70% | 4.00 to 4.30
CC(C)(C)OC(=O)n1cc(/C=c2\[nH]c(=O)/c(=C/c3ccccc3)[nH]c2=O)c2ccccc21 [Compound 1471, (3Z,6Z)-3-Benzylidene-6-(3-(1-tert-butoxycarbonyl)indolyl)methylene-2,5-piperazinedione] | 0% | 6% | 20% | 60% | 80% | 4.30 to 4.60
COc1ccc(/C=c2\[nH]c(=O)/c(=C/c3cn(C(=O)OC(C)(C)C)c4ccccc34)[nH]c2=O)cc1 [Compound 1506, (3Z,6Z)-3-(4-Methoxybenzylidene)-6-(3-(1-tert-butoxycarbonyl)indolyl)methylene-2,5-piperazinedione] | 2% | 4% | 26% | 58% | 75% | 4.30 to 4.60
COc1ccc(/C=c2\[nH]c(=O)/c(=C/c3cccn3C(=O)OC(C)(C)C)[nH]c2=O)cc1 [Compound 1507, (3Z,6Z)-3-(4-Methoxybenzylidene)-6-(2-(1-tertbutoxycarbonyl)pyrrolyl)methylene-2,5-piperazinedione] | 1% | 1% | 45% | 62% | 78% | 4.30 to 4.60
COc1ccc(/C=c2\[nH]c(=O)/c(=C/c3c[nH]c4ccccc34)[nH]c2=O)cc1 [Compound 1545, (3Z,6Z)-3-(3-Indolylmethylene)-6-(4-methoxybenzylidene)-2,5-piperazinedione] | 1% | 5% | 39% | 64% | 87% | 
CC(C)(C)OC(=O)n1cc(/C=c2\[nH]c(=O)/c(=C/c3c(Cl)cccc3Cl)[nH]c2=O)c2ccccc21 [Compound 1560, (3Z,6Z)-3-(2,6-Dichlorobenzylidene)-6-(1-tert-butoxycarbonyl-3-indolyl)methylene-2,5-piperazinedione] | 13% | 34% | 46% | 48% | 50% | 4.00 to 4.30
CC(C)(C)OC(=O)n1cc(/C=c2\[nH]c(=O)/c(=C/c3cccs3)[nH]c2=O)c2ccccc21 [Compound 1618, (3Z,6Z)-3-(1-tert-butoxycarbonyl-3-indolyl)methylene-6-(2-thenylidene)-2,5-piperazinedione] |  | 1% | 3% | 32% | 51% | 4.00 to 4.30
COc1ccc(/C=c2\[nH]c(=O)/c(=C/c3ccc(CN)cc3)[nH]c2=O)cc1 [Compound 1657, (3Z,6Z)-3-(4-Aminomethylbenzylidene)-6-(4-methoxybenzylidene)-2,5-piperazinedione] |  | 2% | 46% | 60% | 53% | 4.30 to 4.60
CC(=O)Nc1ccc(/C=c2\[nH]c(=O)/c(=C/C3CCCCC3)[nH]c2=O)cc1 [Compound 1672] | 1% | 4% | 13% | 44% | 70% | 4.00 to 4.30
CC(=O)Nc1ccc(/C=c2\[nH]c(=O)/c(=C/C=Cc3ccccc3)[nH]c2=O)cc1 [Compound 1676, (3Z,6Z)-3-(4-Acetamidobenzylidene)-6-cinnamylidene-2,5-piperazinedione] | 1% | 12% | 52% | 51% | 29% | 4.60 to 4.92
COc1ccc(/C=c2\[nH]c(=O)/c(=C/c3cn(S(C)(=O)=O)c4ccccc34)[nH]c2=O)cc1 [Compound 1693, (3Z,6Z)-3-(1-methanesulfonyl-3-indolyl)methylene-6-(4-methoxybenzylidene)-2,5-piperazinedione] |  | 0% | 1% | 2% | 89% | 4.00 to 4.30
CC(=O)Nc1ccc(/C=c2\[nH]c(=O)/c(=C/c3ccc4c(c3)OCO4)[nH]c2=O)cc1 [Compound 1845, (3Z,6Z)-3-(4-Acetamidobenzylidene)-6-(3,4-methylenedioxybenzylidene)-2,5-piperazinedione] | 53% | 60% | 49% | 30% | 14% | 
O=c1[nH]/c(=C\C2CCCCC2)c(=O)[nH]/c1=C\c1ccccc1 [Compound 1884, (3Z,6Z)-3-Benzylidene-6-cyclohexylmethylene-2,5-piperazinedione] | 0% | 0% | 0% | 14% | 40% | 
COc1ccc(/C=c2\[nH]c(=O)/c(=C/c3ccc(OC(=O)CN4C(=O)c5ccccc5C4=O)cc3)[nH]c2=O)cc1 [Compound 1886, (3Z,6Z)-3-(4-Methoxybenzylidene)-6-(4-phthalimidoacetoxybenzylidene)-2,5-piperazinedione] | 0% | 6% | 18% | 40% | 42% | 
CCOC(OCC)c1ccc(/C=c2\[nH]c(=O)/c(=C/c3ccccc3)[nH]c2=O)cc1 [Compound 1891] | 3% | 3% | 17% | 36% | 28% | 

Next, values leading:

INHIBITION OF PAI-1 (degree of inhibition) (6.25 μm) | INHIBITION OF PAI-1 (degree of inhibition) (12.5 μm) | INHIBITION OF PAI-1 (degree of inhibition) (25 μm) | INHIBITION OF PAI-1 (degree of inhibition) (50 μm) | INHIBITION OF PAI-1 (degree of inhibition) (100 μm) | pIC50 | Structure (SMILES)
 |  | 28% | 52% | 64% | 4.30 to 4.60 | COc1ccc(/C=c2\[nH]c(=O)/c(=C/c3cccs3)[nH]c2=O)cc1 [Compound 1474, (3Z,6Z)-3-(4-Methoxybenzylidene)-6-(2-thienylmethylene)-2,5-piperazinedione]
 |  | 18% | 48% | 68% | 4.00 to 4.30 | COc1ccc(/C=c2\[nH]c(=O)/c(=C/c3ccoc3)[nH]c2=O)cc1 [Compound 1476, (3Z,6Z)-3-(4-Methoxybenzylidene)-6-(3-furylmethylene)-2,5-piperazinedione]
1% | 1% | 1% | 35% | 58% | 4.00 to 4.30 | O=c1[nH]/c(=C\c2c[nH]c3ccccc23)c(=O)[nH]/c1=C\c1ccccc1 [Compound 1509, (3Z,6Z)-3-Benzylidene-6-(3-indolylmethylene)-2,5-piperazinedione]
1% | 1% | 9% | 41% | 75% | 4.00 to 4.30 | O=c1[nH]/c(=C\c2c(Cl)cccc2Cl)c(=O)[nH]/c1=C\c1ccoc1 [Compound 1542, (3Z,6Z)-3-(2,6-Dichlorobenzylidene)-6-(3-furylmethylene)-2,5-piperazinedione]
1% | 0% | 0% | 1% | 62% | 4.00 to 4.30 | COc1ccc(/C=c2\[nH]c(=O)/c(=C/c3cc4ccccc4[nH]3)[nH]c2=O)cc1 [Compound 1718, (3Z,6Z)-3-(2-Indolylmethylene)-6-(4-methoxybenzylidene)-2,5-piperazinedione]
1% | 2% | 73% | 48% | 76% |  | O=c1[nH]/c(=C\c2ccc3c(c2)OCO3)c(=O)[nH]/c1=C\c1ccccc1 [Compound 1808, (3Z,6Z)-3-Benzylidene-6-(3,4-methylenedioxybenzylidene)-2,5-piperazinedione]
1% | 7% | 84% | 76% | 81% |  | COc1ccc(/C=c2\[nH]c(=O)/c(=C/c3ccc4c(c3)OCO4)[nH]c2=O)cc1 [Compound 1809, (3Z,6Z)-3-(4-Methoxybenzylidene)-6-(3,4-methylenedioxybenzylidene)-2,5-piperazinedione]
